Data taken from patent US10577363B2, “Substituted piperidine compounds” (EPIZYME, INC., priority 2014, dated 2020).

Experiments:
[1] = target: T1, SMYD3 (Homo sapiens (Human), UniProt Q9H7B4); test: SMYD3 biochemical assay (SPA, 3H-SAM methylation of MEKK2 protein substrate); details: read-out: SMYD3 Biochem IC50*
Procedure, shortened: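 SPA methyltransferase format: tag-cleaved human SMYD3, insect-cell GST-MEKK2 protein substrate, 3H-SAM donor, 30 min RT enzyme–compound preincubation, 100 uM cold SAM quench.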

[2] = target: T1, SMYD3; test: SMYD3 cell assay (Trimethyl-MEKK2 In-Cell Western in 293T/17 cells); format: cell-based; details: read-out: SMYD3 Cell IC50*
Procedure, shortened: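 In-Cell Western readout: methanol-fixed cells stained for trimethyl-MEKK2 and flag tag, ratio per well normalized to DMSO and background controls.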

T1 sequence (Q9H7B4 whole entry): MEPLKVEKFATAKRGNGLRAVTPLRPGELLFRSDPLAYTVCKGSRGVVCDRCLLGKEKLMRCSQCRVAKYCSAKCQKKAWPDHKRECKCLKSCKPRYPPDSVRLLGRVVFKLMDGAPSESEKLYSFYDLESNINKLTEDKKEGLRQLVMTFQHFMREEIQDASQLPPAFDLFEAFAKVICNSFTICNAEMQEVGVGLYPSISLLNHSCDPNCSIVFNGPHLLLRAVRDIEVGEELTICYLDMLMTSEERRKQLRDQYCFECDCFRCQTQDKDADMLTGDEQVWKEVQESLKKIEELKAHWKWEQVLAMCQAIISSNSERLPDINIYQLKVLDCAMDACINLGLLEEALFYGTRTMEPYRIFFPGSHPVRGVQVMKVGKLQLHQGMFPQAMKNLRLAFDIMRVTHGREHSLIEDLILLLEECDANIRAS

Structure (SMILES)	IC50 [1]	IC50 [2]
CCc1cc(C(=O)N[C@H]2C[C@H]3CC[C@@H](C2)N3S(=O)(=O)[C@H]2CC[C@H](NCCO)CC2)no1 [compound 788, 5-ethyl-N-((1R,3R,5S)-8-(((1r,4R)-4-((2-hydroxyethyl)amino)cyclohexyl)sulfonyl)-8-azabicyclo[3.2.1]octan-3-yl)isoxazole-3-carboxamide]	1.42 nM	30.8 nM
CCc1cc(C(=O)N[C@H]2C[C@H]3CC[C@@H](C2)N3S(=O)(=O)[C@H]2CC[C@H](N)CC2)no1 [compound 789, N-((1R,3R,5S)-8-(((1r,4R)-4-aminocyclohexyl)sulfonyl)-8-azabicyclo[3.2.1]octan-3-yl)-5-ethylisoxazole-3-carboxamide]	1.59 nM	31.9 nM
C[C@H]1CN(S(=O)(=O)[C@H]2CC[C@H](N)CC2)CC[C@H]1NC(=O)c1cc(C2CC2)on1 [compound 790, N-((3S,4R)-1-(((1r,4S)-4-aminocyclohexyl)sulfonyl)-3-methylpiperidin-4-yl)-5-cyclopropylisoxazole-3-carboxamide]	1.81 nM	56 nM
O=C(N[C@H]1C[C@H]2CC[C@@H](C1)N2S(=O)(=O)N1CCC(NCCc2ccccc2)CC1)c1cc(C2CC2)on1 [compound 791, 5-cyclopropyl-N-((1R,3r,5S)-8-((4-(phenethylamino)piperidin-1-yl)sulfonyl)-8-azabicyclo[3.2.1]octan-3-yl)isoxazole-3-carboxamide]	1.82 nM	40.4 nM
O=C(N[C@H]1C[C@H]2CC[C@@H](C1)N2S(=O)(=O)N1CCC(NCCO)CC1)c1cc(C2CC2)on1 [compound 792, 5-cyclopropyl-N-((1R,3r,5S)-8-((4-((2-hydroxyethyl)amino)piperidin-1-yl)sulfonyl)-8-azabicyclo[3.2.1]octan-3-yl)isoxazole-3-carboxamide]	1.85 nM	44.9 nM
CCc1cc(C(=O)N[C@H]2CCN(S(=O)(=O)N3CCC(N)CC3)[C@@H](C)C2)no1 [compound 793, N-((2S,4S)-1-((4-aminopiperidin-1-yl)sulfonyl)-2-methylpiperidin-4-yl)-5-ethylisoxazole-3-carboxamide]	1.85 nM	26.3 nM
O=C(N[C@H]1C[C@H]2CC[C@@H](C1)N2S(=O)(=O)N1CCC(NCCCC(F)(F)F)CC1)c1cc(C2CC2)on1 [compound 794, 5-cyclopropyl-N-((1R,3r,5S)-8-((4-((4,4,4-trifluorobutyl)amino)piperidin-1-yl)sulfonyl)-8-azabicyclo[3.2.1]octan-3-yl)isoxazole-3-carboxamide]	1.87 nM	34.7 nM
C[C@H]1C[C@@H](NC(=O)c2cc(C3CC3)on2)CCN1S(=O)(=O)CC[C@@H]1CCN(C)C1 [compound 795, 5-cyclopropyl-N-((2S,4S)-2-methyl-1-((2-((S)-1-methylpyrrolidin-3-yl)ethyl)sulfonyl)piperidin-4-yl)isoxazole-3-carboxamide]	1.87 nM	27.6 nM
CC1(N)CCN(S(=O)(=O)N2[C@@H]3CC[C@H]2C[C@@H](NC(=O)c2cc(C4CC4)on2)C3)CC1 [compound 796, N-((1R,3r,5S)-8-((4-amino-4-methylpiperidin-1-yl)sulfonyl)-8-azabicyclo[3.2.1]octan-3-yl)-5-cyclopropylisoxazole-3-carboxamide]	1.9 nM	40.7 nM
CCc1cc(C(=O)N[C@H]2C[C@H]3CC[C@@H](C2)N3S(=O)(=O)CC2CCN(C)CC2)no1 [compound 797, 5-ethyl-N-((1R,3r,5S)-8-(((1-methylpiperidin-4-yl)methyl)sulfonyl)-8-azabicyclo[3.2.1]octan-3-yl)isoxazole-3-carboxamide]	1.9 nM	42.7 nM
CN[C@H]1CC[C@@H](S(=O)(=O)N2[C@@H]3CC[C@H]2C[C@@H](NC(=O)c2cc(C4CC4)on2)C3)CC1 [compound 798, 5-cyclopropyl-N-((1R,3R,5S)-8-(((1s,4S)-4-(methylamino)cyclohexyl)sulfonyl)-8-azabicyclo[3.2.1]octan-3-yl)isoxazole-3-carboxamide]	1.91 nM	30.5 nM
